Reference: patent publication US10611740B2, “Aryl dihydro-2H-benzo[b][1,4]oxazine sulfonamide and related compounds for use as agonists of RORγ and the treatment of disease” (Lycera Corporation, priority 2015, dated 2020)

Molecular target: T1, Gal4-RORγ-LBD (Homo sapiens, UniProt P51449)
T1 construct: expressed in transfected cells; host or cells: HEK-293 cells (pcDNA3.1neo plasmid)
T1 sequence (P51449 269-508 limits assumed): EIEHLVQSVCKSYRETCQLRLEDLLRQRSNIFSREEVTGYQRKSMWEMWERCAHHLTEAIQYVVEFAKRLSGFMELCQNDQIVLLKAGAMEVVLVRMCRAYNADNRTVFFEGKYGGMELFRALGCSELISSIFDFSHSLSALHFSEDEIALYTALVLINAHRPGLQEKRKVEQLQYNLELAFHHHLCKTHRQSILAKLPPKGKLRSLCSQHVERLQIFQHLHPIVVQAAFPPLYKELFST
Assay: Gal4-RORγ Luciferase Reporter Assay in HEK-293T Cells
Format: cell-based
Conditions: HEK-293 cells, 2 μM ursolic acid
Experimental: Assay procedures and results are described below.
In the following protocol, HEK-293 cells were transfected with a construct comprising the Gal4 DNA binding domain fused to the ligand binding domain of RORγ (Gal4-RORγ-LBD) in a pcDNA3.1neo plasmid, and also with a reporter construct comprising pGL4.31 Gal4-luciferase (Promega). Control cells were prepared similarly using empty pcDNA3.1neo and pGL4.31 vectors.
Trans-IT reagent (Mirus, 60 μL) at room temperature was added drop wise to OptiMEM (Invitrogen, 1.5 ml). This reagent mixture was mixed by inversion then incubated for 5 to 30 minutes at room temperature. It then was added to a solution of both expression vectors (5 μg each), mixed, and incubated at room temperature for about 20 minutes. HEK-293 cells were harvested from incubation flasks by removing the media, treating with TrypLE Express (Invitrogen), and incubating until the cells detached from the bottom of the flask (approximately 2-5 minutes). 10 Million cells were collected by centrifugation and re-suspended in 10 mL of Dulbecco's Modified Eagle Medium, High Glucose (DMEM, Invitrogen) containing 10% Fetal Bovine Serum and 100 IU each of penicillin and streptomycin. The re-suspended cells and the transfection mixture were added to a T75 flask, mixed and incubated overnight at 37° C. and 5% CO2.
The cells were harvested as described above, counted, and centrifuged to obtain the desired number of cells, then re-suspended in complete growth media at 0.75×10^6 cells/mL. The RORγ antagonist, ursolic acid, was added to the cells at a final concentration of 2 μM. Cells were plated at 20 μL of cell suspension/well (10,000-15,000 cells/well) in white tissue culture treated 384 well plates. Test compounds were dissolved at 10 mM in DMSO then diluted into complete growth medium to 5× the final intended test concentration. These drug stock solutions, 5 μL/well were added to the tissue culture plate. The final DMSO concentration was 0.2%. The plates were briefly centrifuged then incubated overnight at 37° C. and 5% CO2. To conduct the assay, the tissue culture plates were allowed to equilibrate to room temperature and One-Glo luciferase reagent (Promega, 25 μL/well) was added. The plates were briefly centrifuged then incubated at room temperature for 10 minutes. The luciferase intensity was read on an Envision plate reader (Perkin Elmer). […] The luciferase signal in the absence of ursolic acid or test compound is defined at 100. The Max Response is the upper plateau in the signal as determined by line-fit using a 4-parameter logistic model in PRISM (GraphPad).

SMILES | EC50 [nM] | Gal4-RORγ Assay Max Response
O=C(O)C1(C[C@H]2CN(S(=O)(=O)c3cccc(C(F)(F)F)c3)c3cc(-c4cccc(OC(F)(F)F)c4)ccc3O2)CCOCC1 [Compound 78K, (S)-4-((6-(3-(trifluoromethoxy)-phenyl)-4-((3-(trifluoromethyl)-phenyl)sulfonyl)-3,4-dihydro-2H-benzo[b][1.4]oxazin-2-yl)methyl)tetrahydro-2H-pyran-4-carboxylic acid] | < 500 | ** (The symbol “**” indicates a value in the range of greater than 90 to 150)
COc1cc(Cl)cc(-c2ccc3c(c2)N(S(=O)(=O)c2cccc(C(F)(F)F)c2)C[C@H](CC2(C(=O)O)CCOCC2)O3)c1 [Compound 78L, (S)-4-((6-(3-chloro-5-methoxy-phenyl)-4-((3-(trifluoromethyl)-phenyl)sulfonyl)-3,4-dihydro-2H-benzo[b][1,4]oxazin-2-yl)methyl)tetrahydro-2H-pyran-4-carboxylic acid] | < 500 | ** (The symbol “**” indicates a value in the range of greater than 90 to 150)
O=C(O)C1(C[C@H]2CN(S(=O)(=O)c3cccc(C(F)(F)F)c3)c3cc(-c4cccc(F)c4Cl)ccc3O2)CCOCC1 [Compound 78M, (S)-4-((6-(2-chloro-3-fluoro-phenyl)-4-((3-(trifluoromethyl)-phenyl)sulfonyl)-3,4-dihydro-2H-benzo[b][1,4]oxazin-2-yl)methyl)tetrahydro-2H-pyran-4-carboxylic acid] | < 500 | *** (The symbol “***” indicates a value in the range of greater than 150 to 200)
O=C(O)C1(C[C@H]2CN(S(=O)(=O)c3cccc(C(F)(F)F)c3)c3cc(-c4cc(F)cc(F)c4)ccc3O2)CCOCC1 [Compound 78N, (S)-4-((6-(3,5-difluorophenyl)-4-((3-(trifluoromethyl)phenyl)-sulfonyl)-3,4-dihydro-2H-benzo[b][1,4]oxazin-2-yl)methyl)tetrahydro-2H-pyran-4-carboxylic acid] | < 500 | ** (The symbol “**” indicates a value in the range of greater than 90 to 150)
O=C(O)C1(C[C@H]2CN(S(=O)(=O)c3cccc(C(F)(F)F)c3)c3cc(-c4cc(F)cc(C(F)(F)F)c4)ccc3O2)CCOCC1 [Compound 78O, (S)-4-((6-(3-fluoro-5-(trifluoro-methyl)phenyl)-4-((3-(trifluoro-methyl)phenyl)sulfonyl)-3,4-dihydro-2H-benzo[b][1,4]oxazin-2-yl)methyl)tetrahydro-2H-pyran-4-carboxylic acid] | < 500 | ** (The symbol “**” indicates a value in the range of greater than 90 to 150)
O=C(O)C1(C[C@H]2CN(S(=O)(=O)c3cccc(C(F)(F)F)c3)c3cc(-c4cccc(F)c4F)ccc3O2)CCOCC1 [Compound 78P, (S)-4-((6-(2,3-difluorophenyl)-4-((3-(trifluoromethyl)phenyl)-sulfonyl)-3,4-dihydro-2H-benzo[b][1,4]oxazin-2-yl)methyl)tetrahydro-2H-pyran-4-carboxylic acid] | < 500 | ** (The symbol “**” indicates a value in the range of greater than 90 to 150)
Cc1cc(F)cc(-c2ccc3c(c2)N(S(=O)(=O)c2cccc(C(F)(F)F)c2)C[C@H](CC2(C(=O)O)CCOCC2)O3)c1 [Compound 78Q, (S)-4-((6-(3-fluoro-5-methyl-phenyl)-4-((3-(trifluoromethyl)-phenyl)sulfonyl)-3,4-dihydro-2H-benzo[b][1,4]oxazin-2-yl)methyl)tetrahydro-2H-pyran-4-carboxylic acid] | < 500 | ** (The symbol “**” indicates a value in the range of greater than 90 to 150)
COc1cc(F)cc(-c2ccc3c(c2)N(S(=O)(=O)c2cccc(C(F)(F)F)c2)C[C@H](CC2(C(=O)O)CCOCC2)O3)c1 [Compound 78R, (S)-4-((6-(3-fluoro-5-methoxy-phenyl)-4-((3-(trifluoromethyl)-phenyl)sulfonyl)-3,4-dihydro-2H-benzo[b][1,4]oxazin-2-yl)methyl)tetrahydro-2H-pyran-4-carboxylic acid] | < 500 | ** (The symbol “**” indicates a value in the range of greater than 90 to 150)
COc1cc(F)cc(-c2ccc3c(c2)N(S(=O)(=O)c2cccc(C(F)(F)F)c2)C[C@H](CC2(C(=O)O)CCOCC2)O3)c1F [Compound 78S, (S)-4-((6-(2,5-difluoro-3-methoxyphenyl)-4-((3-(trifluoro-methyl)phenyl)sulfonyl)-3,4-dihydro-2H-benzo[b][1,4]oxazin-2-yl)methyl)tetrahydro-2H-pyran-4-carboxylic acid] | < 500 | ** (The symbol “**” indicates a value in the range of greater than 90 to 150)
O=C(O)C1(C[C@H]2CN(S(=O)(=O)c3cccc(C(F)(F)F)c3)c3cc(-c4cc(F)cc(F)c4F)ccc3O2)CCOCC1 [Compound 78T, (S)-4-((4-((3-(trifluoromethyl)-phenyl)sulfonyl)-6-(2,3,5-trifluorophenyl)-3,4-dihydro-2H-benzo[b][1,4]oxazin-2-yl)methyl)tetrahydro-2H-pyran-4-carboxylic acid] | < 500 | ** (The symbol “**” indicates a value in the range of greater than 90 to 150)
COc1cc(F)c(F)c(-c2ccc3c(c2)N(S(=O)(=O)c2cccc(C(F)(F)F)c2)C[C@H](CC2(C(=O)O)CCOCC2)O3)c1 [Compound 78U, (S)-4-((6-(2,3-difluoro-5-methoxyphenyl)-4-((3-(trifluoromethyl)phenyl)sulfonyl)-3,4-dihydro-2H-benzo[b][1,4]oxazin-2-yl)methyl)tetrahydro-2H-pyran-4-carboxylic acid] | < 500 | ** (The symbol “**” indicates a value in the range of greater than 90 to 150)
O=C(O)C1(C[C@H]2CN(S(=O)(=O)c3cccc(C(F)(F)F)c3)c3cc(-c4cc(F)cc(OC(F)F)c4F)ccc3O2)CCOCC1 [Compound 78V, (S)-4-((6-(3-(difluoromethoxy)-2,5-difluorophenyl)-4-((3-(trifluoromethyl)phenyl)sulfonyl)-3,4-dihydro-2H-benzo[b][1,4]oxazin-2-yl)methyl)tetrahydro-2H-pyran-4-carboxylic acid] | < 500 | ** (The symbol “**” indicates a value in the range of greater than 90 to 150)
O=C(O)C1(C[C@H]2CN(S(=O)(=O)c3cccc(C(F)(F)F)c3)c3cc(-c4cc(Cl)cc(F)c4F)ccc3O2)CCOCC1 [Compound 78W, (S)-4-((6-(5-chloro-2,3-difluorophenyl)-4-((3-(trifluoromethyl)phenyl)sulfonyl)-3,4-dihydro-2H-benzo[b][1,4]oxazin-2-yl)methyl)tetrahydro-2H-pyran-4-carboxylic acid] | < 500 | ** (The symbol “**” indicates a value in the range of greater than 90 to 150)
O=C(O)CO[C@@H]1Cc2ccc(-c3cc(F)ccc3F)cc2N(S(=O)(=O)c2cccc(C(F)(F)F)c2)C1 [Compound 82, (R)-2-((7-(2,5-difluorophenyl)-1-((3-(trifluoromethyl)phenyl)sulfonyl)-1,2,3,4-tetrahydroquinolin-3-yl)oxy)acetic acid] | 500 to 5000 | ** (The symbol “**” indicates a value in the range of greater than 90 to 150)
CC(C)(O[C@@H]1Cc2ccc(-c3cc(F)ccc3F)cc2N(S(=O)(=O)c2cccc(C(F)(F)F)c2)C1)C(=O)O [Compound 83B, (R)-2-((7-(2,5-difluorophenyl)-1-((3-(trifluoromethyl)phenyl)sulfonyl)-1,2,3,4-tetrahydroquinolin-3-yl)oxy)-2-methylpropanoic acid] | 500 to 5000 | ** (The symbol “**” indicates a value in the range of greater than 90 to 150)
CC(C)(O[C@H]1Cc2ccc(-c3cc(F)ccc3F)cc2N(S(=O)(=O)c2cccc(C(F)(F)F)c2)C1)C(=O)O [Compound 83C, (S)-2-((7-(2,5-difluorophenyl)-1-((3-(trifluoromethyl)phenyl)sulfonyl)-1,2,3,4-tetrahydroquinolin-3-yl)oxy)-2-methylpropanoic acid] | 500 to 5000 | ** (The symbol “**” indicates a value in the range of greater than 90 to 150)
